Holding throughout (experiment): NCI-60 cell line screen, 48 h
For experiment [1], the system named is MOLT-4 leukemia.
Experiment [2] concerns NCI-H23 lung.
Experiment [3] has as its system PC-3 prostate.
Experiment [4] concerns SNB-75 CNS.
The subject of experiment [5] is DU-145 prostate.
Experiment [6] has as its system UACC-257 melanoma.
In experiment [7] the test system is SR leukemia.
The subject of experiment [8] is SK-MEL-5 melanoma.
In experiment [9] the test system is HS 578T breast.
Experiment [10] concerns MDA-MB-231 breast.

Data on 14 compounds can be found in PubChem BioAssay (NCI).

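1) Cells in 96-well plates. 2) Compound, 48 h, 5 concentrations. 3) Linear interpolation between surrounding doses. 4) Unreached endpoint = highest concentration. The concentration for full growth arrest is given as TGI.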

`CC(OP(=O)(O)O)C(N)C(=O)O` (stereo not given): the TGI in experiment [1], in experiment [2], in experiment [3], in experiment [4], in [5] and in experiment [6] was greater than 100 µM each time. For the same compound, the TGI in [7], in [8], in experiment [9] and in [10] was greater than 100 µM throughout.
Consider `O=c1cc(-c2ccccc2)oc2c1ccc1[nH]c3ccccc3c(=O)c12`, for which the TGI in [1], in [2], in [3], in experiment [4], in experiment [5] and in experiment [6] was greater than 100 µM in each case. Besides, the TGI in [7], in experiment [8], in [9] and in experiment [10] was greater than 100 µM in each case.
As for `Cc1cc2c(c(C(=O)NCC(=O)O)c1)Oc1c(cc(C)cc1C(=O)NCC(=O)O)S2`, the TGI in [1], in experiment [2], in experiment [3], in [4], in [5] and in experiment [6] was greater than 100 µM in each case. For the same compound, the TGI in experiment [7], in experiment [9] and in experiment [10] was greater than 100 µM each time.
Consider `COC(=O)c1onc(C2OC(C)(C)OC2C(O)COC(c2ccccc2)(c2ccccc2)c2ccccc2)c1C(=O)OC` (stereo not given), for which the TGI in experiment [1], in experiment [2], in experiment [3], in experiment [5], in experiment [7] and in [8] was greater than 100 µM throughout. Further, the TGI in [9] and in [10] was greater than 100 µM each time.
With `C/C(=C\Cc1ccc(F)cc1)CCCCCC/C(C)=C/Cc1ccc(F)cc1`, the TGI came to 47.6 µM in experiment [1]; 24 µM in experiment [2]; 33.3 µM in [3]; 35 µM in experiment [4]; 27.8 µM in [5]; 33.3 µM in [6]. Besides, the TGI in [7] amounted to 57.2 µM; in experiment [8], 27.8 µM; in experiment [9], 78.1 µM; in experiment [10] it was 37.9 µM.
`Clc1ccc(-c2nn3c(COc4cccc(OCc5nnc6sc(-c7ccc(Cl)cc7)nn56)c4)nnc3s2)cc1`: the TGI in experiment [1] was 74.6 µM; in [2], 71.3 µM; in experiment [3], greater than 100 µM; in experiment [4], 73.5 µM; in [5], 74.3 µM; in experiment [6], 62.1 µM. Moreover, the TGI in experiment [7] is 88.9 µM; in [8], 50.7 µM; in experiment [9], greater than 100 µM; in [10], greater than 100 µM.
Consider `COc1c(C)c(C/C=C(\C)CCCC(C)CCCC(C)CCCC(C)C)c(OC)c2ccccc12` (stereo not given), for which the TGI in experiment [1], in experiment [2], in experiment [3], in [4], in [5] and in [6] was greater than 100 µM in each case. The TGI in experiment [7], in experiment [8], in experiment [9] and in experiment [10] was greater than 100 µM each time.
In the case of `N/N=C(/N)SCCCCCCCCCCS/C(N)=N/N`, the TGI in experiment [2] was greater than 100 µM; in experiment [3], greater than 100 µM; in [5] it was greater than 100 µM; in experiment [6] it was greater than 100 µM; in [7], 27.4 µM; in experiment [8], 49 µM. The figures for the TGI in experiment [9] and in [10] were greater than 100 µM and 85.2 µM, respectively.
As for `CC/C=C/c1cc2c(cc1O)CCC1C2CC[C@@]2(C)C1CC[C@@H]2O` (stereo not given in full), the TGI in experiment [1] came out at 18.8 µM; in experiment [2], 20.2 µM; in experiment [3], 11.6 µM; in experiment [4] it was 8.14 µM; in [5], 14.6 µM; in experiment [6], 25.2 µM. In addition, the TGI in experiment [7] was 0.817 µM; in experiment [8] it was 11.3 µM; in experiment [9], 6.11 µM; in experiment [10], 18.1 µM.
In the case of `O=S(=O)(/N=S(/Nc1ccccc1)C(F)(F)Cl)c1ccccc1` (stereo not given), the TGI in experiment [1], in [2], in [3], in [4], in experiment [5] and in [6] was greater than 100 µM each time. Besides, the TGI in [7], in experiment [8], in [9] and in [10] was greater than 100 µM in each case.
Turning to `COc1ccc(/C=C2\CCCc3ccccc3C2=O)cc1`, the TGI in experiment [1] is 35.3 µM; in experiment [2] it was 7.76 µM; in experiment [3] it was greater than 100 µM; in [4], greater than 82.3 µM; in experiment [5], 1.74 µM; in [6], 37.8 µM. In addition, the TGI in experiment [7] is greater than 32 µM; in experiment [8], 16 µM; in experiment [9], 37.1 µM; in [10], 42.1 µM.
Consider `O=[N+]([O-])c1ccc(N2N=C(c3c(O)ccc4ccccc34)CC2c2ccc(Cl)cc2)c([N+](=O)[O-])c1` (stereo not given), for which the TGI is 32.4 µM in experiment [1]; greater than 100 µM in experiment [2]; 66.4 µM in [3]; greater than 100 µM in experiment [4]; greater than 100 µM in experiment [5]; greater than 100 µM in experiment [6]. Moreover, the TGI in experiment [7] is 31.4 µM; in [8], 39.1 µM; in experiment [9] it was greater than 100 µM; in experiment [10], 56.2 µM.
For the compound `CSc1nnc(SCc2nn3c(=O)cc(C)nc3s2)s1`, the TGI in experiment [1], in experiment [2], in experiment [3], in experiment [4], in [5] and in experiment [6] was greater than 100 µM in each case. The TGI in [7], in experiment [8], in [9] and in experiment [10] was greater than 100 µM throughout.
For `O=C1C=CC2(O[C@H](C3CCCCC3)[C@@H](C3CCCCC3)O2)C(SC(=O)c2ccccc2)C1` (stereo not given in full), the TGI in experiment [1] turned out to be 3.77 µM; in [2] it was 8.93 µM; in [3], 7.43 µM; in experiment [4], 14.4 µM; in experiment [5], 10.4 µM; in experiment [6], 16.2 µM. Further, the TGI in [7] amounted to 2.36 µM; in experiment [8], 5.53 µM; in experiment [9], 10.9 µM; in experiment [10], 5.11 µM.
